In publication PMC12186257, “Serendipitous and Systematic Chemoproteomic Discovery of MBLAC2, HINT1, and NME1‑4 Inhibitors from Histone Deacetylase-Targeting Pharmacophores” (ACS Chemical Biology, 2025):

Test system: casein kinase 2 (CK2) complex proteins (CSNK2A1/3, CSNK2A2, CSNK2B, EIF3J)
Assay: Kinobead competition assay
Type: binding, human
Source text: The binding of KV-24 and KV-30 to the nucleotide-binding pocket raises the question of whether these compounds also target other nucleotide-binding proteins, such as kinases. To evaluate potential off-target effects, we performed Kinobead competition assays. This chemoproteomic approach is conceptually very similar to the one used here in that broad spectrum kinase inhibitors are immobilized on beads. […] PDE1C is a cAMP/cGMP nucleotide-binding protein that features two divalent metal cation cofactors. The hydroxamic acid moiety of KV-24 might chelate these metal cofactors, supporting the hypothesis that KV-24 binds the active site of PDE1C. […]
Given that local GTP production by NME1 and NME2 is essential for fueling dynamin-driven endocytosis, we investigated the effect of KV-50-mediated NME1/2 inhibition on fluorescent transferrin (TF) uptake in cells. HeLa cells were treated with KV-50 or known endocytosis inhibitors (Pitstop-2 and Dynasore), and surface-bound and internalized fluorescent TF were quantified. […]
LC-MS/MS. The different sample types were measured with different LC-MS/MS settings. MBLAC2 2-dose competition assays were measured with the Lumos1 setup, MBLAC2 9-dose competition assays were measured with the Lumos2 setup, and kinobeads assays were measured with the Eclipse setup. […]

## O=C(NO)c1ccc(-c2nc3ccccc3n3cccc23)cc1 [KV-24]
  casein kinase 2 family members binding: reduced binding at two-digit μM concentrations
